Source: PubChem BioAssay (NCI)
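Following 48 hours of exposure in 96-well plates, responses at five concentrations were used to interpolate endpoints linearly. TGI marks complete inhibition of growth.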

Assays:
Assay in all cases: NCI tumour cell line growth inhibition, 48 h
DMS 273 small cell lung = tested on: DMS 273 small cell lung
HOP-18 NSCLC = tested on: HOP-18 NSCLC
KM20L2 colon = tested on: KM20L2 colon
P388 leukemia = tested on: P388 leukemia
P388/ADR leukemia = tested on: P388/ADR leukemia
SN12K1 renal = tested on: SN12K1 renal
XF 498 CNS = tested on: XF 498 CNS
LXFL 529 NSCLC = tested on: LXFL 529 NSCLC
RXF-631 renal = tested on: RXF-631 renal

SMILES | TGI (DMS 273 small cell lung) [µM] | TGI (HOP-18 NSCLC) [µM] | TGI (KM20L2 colon) [µM] | TGI (P388 leukemia) [µM] | TGI (P388/ADR leukemia) [µM] | TGI (SN12K1 renal) [µM] | TGI (XF 498 CNS) [µM] | TGI (LXFL 529 NSCLC) [µM] | TGI (RXF-631 renal) [µM]
FC(F)(F)C1=NC(=NNc2nnc(-c3ccccc3)c(-c3ccccc3)n2)N=C(C(F)(F)F)C1 | > 100 | > 100 | > 100 | > 47.5 | > 100 | > 100 | > 88.5 |  | 
CC(C)Cc1cccc(C(C)C)c1NC(=O)CCC(=O)N/N=C1\C(=N/NC(=O)CCC(=O)Nc2c(C(C)C)cccc2C(C)C)C(c2ccc3c(c2)OCO3)Oc2ccccc21 (stereo unspecified) | > 100 |  | > 100 |  |  |  | > 100 | > 100 | 
C=C1C(=O)OC2/C=C(\C)CC(O)/C=C(/CO)CC(OC(=O)/C(C)=C/C)C12 (stereo unspecified) | 82.5 | 49.7 | 246 | 113 | 240 | 76.6 | 37.2 |  | 
C[C@H](O)C(=O)SC[C@H](NC(=O)CC[C@@H](N)C(=O)O)C(=O)NCC(=O)O | > 100 |  | > 100 |  |  |  |  | > 100 | 
CS(=O)(=O)OCc1c(O)c2c(c(O)c1COS(C)(=O)=O)C(=O)C=CC2=O | > 100 | > 100 | > 100 |  |  |  |  | > 100 | > 100
O=C(/N=C/c1c(O)c2ccccc2oc1=O)NC1CCCCC1 | > 100 |  | > 100 |  |  |  | 93 | > 100 | 
NC1=NS(=O)(=O)Nc2nc(-c3cccs3)[nH]c21 | > 100 | > 100 | > 100 |  |  |  |  | > 100 | 
COc1c2ccoc2c(S(=O)(=O)Nc2ccc(Cl)cc2)c2oc(C)cc(=O)c12 | > 100 | > 100 | > 100 | > 100 | > 100 | > 100 | > 100 |  | 
